Experimental data as given in patent US20110269763A1, “CRTH2 receptor ligands for medicinal uses” (7TM Pharma A/S, priority 2004, published 2011).

Legend:
human CRTH2 [1] = target: T1, human CRTH2 (Homo sapiens, UniProt Q9Y5Y4, V204A); experiment: Functional antagonist BRET assay on HEK293 cells stably expressing human CRTH2-Rluc and GFP2-β-arr2; assay type: cell-based; design: expressed in transfected cells; conditions: BRET, antagonist incubated 15 minutes prior to agonist; read-out: Antag. IC50
T1 sequence (Q9Y5Y4 1-395 V204A): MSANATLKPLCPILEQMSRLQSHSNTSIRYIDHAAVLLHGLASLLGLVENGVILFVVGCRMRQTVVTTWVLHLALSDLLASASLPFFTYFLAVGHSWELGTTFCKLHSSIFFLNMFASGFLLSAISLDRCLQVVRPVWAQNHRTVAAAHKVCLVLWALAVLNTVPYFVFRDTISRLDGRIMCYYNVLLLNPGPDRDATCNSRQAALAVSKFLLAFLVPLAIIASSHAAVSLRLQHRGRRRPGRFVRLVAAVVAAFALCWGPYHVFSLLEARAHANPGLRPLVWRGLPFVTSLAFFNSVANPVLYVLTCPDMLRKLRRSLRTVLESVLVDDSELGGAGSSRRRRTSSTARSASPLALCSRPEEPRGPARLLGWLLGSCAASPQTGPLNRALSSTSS
In short: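 Cells (2×10^6/mL in D-PBS with glucose) were preincubated 15 min with antagonist at 1% DMSO, then agonist and DeepBlueC were co-injected. Emission at 400 and 515 nm was read 5 s later, and the mBRET ratio (515/400 nm) was used to derive IC50 from concentration–response curves.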

human CRTH2 [2] = target: T1, human CRTH2; experiment: Receptor binding assay: [3H]PGD2 competition binding on whole COS-7 cells transiently transfected with CRTH2 (also stable HEK293 cells); design: expressed in transfected cells; host or cells: COS-7 (transient, calcium phosphate); conditions: competition with 0.1 nM [3H]PGD2, whole cells, 3 h at 4° C.
In short: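 Whole COS-7 cells transiently transfected with human CRTH2 (calcium phosphate), or stable HEK293 cells, competed against 0.1 nM [3H]PGD2 in HBSS/10 mM HEPES with 1% DMSO, 3 h at 4 °C. Nonspecific binding with 10 μM PGD2; scintillation counting, duplicates. IC50 from curve fitting.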

Molecule	IC50 (human CRTH2 [1]) [nM]	IC50 (human CRTH2 [2]) [nM]
O=C(O)COc1ccc(Br)cc1CN1CC(=O)N(Cc2ccc(Cl)cc2)C1=O [D139, 4-Bromo-2-[3-(4-chlorobenzyl)-2,4-dioxoimidazolidin-1-ylmethyl]phenoxyacetic acid]	< 500	< 500
O=C(O)COc1ccc(Br)cc1CN1CC(=O)N(CCc2ccccc2)C1=O [D140, 4-Bromo-2-(2,4-dioxo-3-phenethylimidazolidin-1-ylmethyl)phenoxyacetic acid]	500 to 5000	< 500
O=C(O)COc1ccc(Br)cc1CC1SC(=O)N(Cc2ccc(Cl)cc2)C1=O (stereo not shown) [D141, 4-Bromo-2-[3-(4-chlorobenzyl)-2,4-dioxothiazolidin-5-ylmethyl]phenoxyacetic acid]	< 500	< 500
Cc1ccc(CN2C(=O)SC(Cc3cc(Br)ccc3OCC(=O)O)C2=O)cc1 (stereo not shown) [D142, 4-Bromo-2-[3-(4-methylbenzyl)-2,4-dioxothiazolidin-5-ylmethyl]phenoxyacetic acid]	< 500	< 500
O=C(O)COc1ccc(Br)cc1CC1SC(=O)N(CC(=O)c2ccc(Cl)cc2)C1=O (stereo not shown) [D143, 4-Bromo-2-{3-[2-(4-chlorophenyl)-2-oxoethyl]-2,4-dioxothiazolidin-5-ylmethyl}phenoxyacetic acid]	< 500	< 500
O=C(O)COc1ccc(Br)cc1CC1SC(=O)N(Cc2cccc(Cl)c2)C1=O (stereo not shown) [D144, 4-Bromo-2-[3-(3-chlorobenzyl)-2,4-dioxothiazolidin-5-ylmethyl]phenoxyacetic acid]	< 500	< 500
O=C(O)COc1ccc(Br)cc1CC1SC(=O)N(Cc2ccncc2)C1=O (stereo not shown) [D145, 4-Bromo-2-(2,4-dioxo-3-pyridin-4-ylmethylthiazolidin-5-ylmethyl)phenoxyacetic acid]	< 500	< 500
CC1(Cc2cc(Br)ccc2OCC(=O)O)SC(=O)N(Cc2ccc(Cl)cc2)C1=O (stereo not shown) [D146, 4-Bromo-2-[3-(4-chlorobenzyl)-5-methyl-2,4-dioxothiazolidin-5-ylmethyl]phenoxyacetic acid]	< 500	< 500
O=C(O)COc1ccccc1C=NNC(=O)COc1ccc(Cl)cc1Cl [D149]	< 500	< 500
O=C(O)COc1ccc(Br)cc1C=NNc1cccc2cccnc12 [D150]	> 5000	< 500
O=C(O)COc1ccc(Br)cc1C=NNc1ccccn1 [D151]	> 5000	< 500
O=C(O)COc1ccc(Br)cc1C=NNc1nncc(-c2ccccc2)n1 [D152]	500 to 5000	< 500
COc1ccc(-c2cnnc(NN=Cc3ccccc3OCC(=O)O)n2)cc1 [D153]	> 5000	500 to 5000
O=C(O)COc1ccccc1C=NNC(=O)c1ccc2ccccc2c1O [D154]	< 500	< 500
O=C(O)COc1ccccc1C=NNC(=O)c1ccnc(-c2ccccc2)c1 [D155]	500 to 5000	< 500
O=C(O)COc1ccccc1C=NNC(=O)CSc1nnc(-c2ccc(Cl)cc2)n1-c1ccccc1 [D156]	500 to 5000	< 500
{4-Bromo-2-[1-(4-bromo-2-chlorophenyl)-1H-pyrazole-4-carbonyl]phenoxy}acetic acid [D67]	< 500	< 500
